Data on 5 compounds can be found in EP0007206A1, “Phenethanolamines, their formulations, preparation and use” (ELI LILLY AND COMPANY, priority 1978, dated 1980).

Assay [1] has as its system Chinese hamster ovary cells. Kind of assay: mitotic arrest assay (mitotic inhibitory activity). The class given is cell-based. The note with it: 20.0 mcg/ml, five hours contact. The method, then:
One such test, for example, was a determination of mitotic inhibitory activity. The compounds of this invention have the ability to arrest cultured cells at the mitotic phase (metaphase) of the cell cycle without apparent effect on other stages of the cell cycle. Such mitotic inhibitory activity is an indication that the compounds may have a beneficial effect on the biological activities of antineoplastic drugs. […] The compounds of the invention were administered at 20 mcg./ml. and the number of cells arrested at the mitotic phase out of 1000 cultured cells were counted and compared to the controls which underwent mitotic arrest without a drug present. Two evaluations were carried out for each test compound. The results reported are the percent of cells held at mitosis after five hours contact with the compound of this invention.

Assay [2] has as its system aly fast tumor strain of bronchiogenic carcinoma of the lung. The assay is described as follows: combination chemotherapy with cytoxan, implanted bronchiogenic carcinoma (Table 4). The conditions noted are these: cytoxan 10 mg./kg. i.p. once daily, A 10 mg./kg. s.c. twice daily. In kind it is in vivo, hamsters. The method, then: (§1) In a typical experiment, laboratory mice were infected by a subcutaneous implantation of a tumor tissue in the axillary region of the body. The implantations were accomplished by means of a trocar. Initial tumor size in each animal generally was about 2 square millimeters. Tumor size was then measured periodically as length and width in mm. Typical tumor systems implanted included adenocarcinoma 755, an Aly Fast strain of bronchiogenic carcinoma, and mecca lymphosarcoma. Oncolytic agents utilized in the tests to determine the potentiating effects of the compounds of the invention.include cytoxan, 5-fluorouracil, vindesine, methotrexate and 6-mercaptopurine. Twenty or thirty infected animals generally were selected as controls and received placebo. Ten infected animals normally were selected to receive a known oncolytic agent. Another ten infected animals were administered the known oncolytic agent in addition to a compound of this invention.
In a similar test, hamsters were infected with an aly fast tumor strain of bronchiogenic carcinoma of the lung. Cytoxan was administered to one group of infected animals at an intraperitoneal dose of 10 mg./kg. once daily. A compound of this invention, N-(2-phenyl-2-hydroxyethyl)-l,l-dimethyl-3-(4-hydroxyphenyl)propylaminium bromide (designated in Table 4 as A), caused a significant synergistic effect when co-administered with cytoxan. Cytoxan was administered i.p. once daily at 10 mg./kg. to the animals receiving the combination chemotherapy, and compound A was administered subcutaneously at the rate of 10 mg./kg. twice daily. It should be noted that the average tumor size for the animals receiving the combination of cytoxan and N-(2-phenyl-2-hydroxyethyl)-l,l-dimethyl-3-(4-hydroxyphenyl)-propylaminium bromide was only 20 square millimeters after the nineteenth day of treatment, while the average tumor size for the group receiving cytoxan was about the same as that for the animals receiving placebo, namely about 1340 square millimeters.

The subject of a further assay is 755 adenocarcinoma. The assay is described as follows: combination chemotherapy with cytoxan at varying doses, implanted 755 adenocarcinoma (Table 8). The class given is in vivo. As to the method:
as §1
A similar study was carried out with cytoxan at varying doses and the combination of cytoxan and N-(2-phenyl-2-hydroxyethyl)-l,l-dimethyl-3-(4-aminocarbonylphenyl)propylaminium chloride. A group of ten animals infected with the 755 adenocarcinoma were given cytoxan intraperitoneally at the rate of 25 mg./kg. once per day on days 5, 9 and 13 of the test. Another group of infected animals received cytoxan at 12.5 mg./kg. once per day on days 5, 9 and 13. A third group of infected animals received the combination of cytoxan, given i.p. at 12.5 mg./kg. on days 5, 9 and 13, and the compound of this invention (compound B) given subcutaneously twice daily on days 5 through 14 at the dose of 7.5 mg./kg. As indicated by the data, all of the control animals and those receiving the oncolytic agent alone were dead after 73 days. In contrast, six of the ten animals which received combination chemotherapy were still living after 73 days of the test, and all of those still living were tumor free.

Setting [3] is: Day 5, cytoxan 12.5 mg./kg. i.p. days 5, 9, 13, B 7.5 mg./kg. s.c. twice daily days 5 through 14.
[4] abbreviates: Day 5, cytoxan 25 mg./kg. i.p. once per day on days 5, 9, 13.
Where [5] appears, read: Day 12, cytoxan 12.5 mg./kg. i.p. days 5, 9, 13, B 7.5 mg./kg. s.c. twice daily days 5 through 14.
The mark [6] stands for this setting: Day 12, cytoxan 25 mg./kg. i.p. once per day on days 5, 9, 13.
[7] abbreviates: Day 17, cytoxan 12.5 mg./kg. i.p. days 5, 9, 13, B 7.5 mg./kg. s.c. twice daily days 5 through 14.
Setting [8] is: Day 17, cytoxan 25 mg./kg. i.p. once per day on days 5, 9, 13.
The mark [9] stands for this setting: Day 23, cytoxan 12.5 mg./kg. i.p. days 5, 9, 13, B 7.5 mg./kg. s.c. twice daily days 5 through 14.
[10] abbreviates: Day 23, cytoxan 25 mg./kg. i.p. once per day on days 5, 9, 13.
Setting [11] is: Day 29, cytoxan 12.5 mg./kg. i.p. days 5, 9, 13, B 7.5 mg./kg. s.c. twice daily days 5 through 14.
[12] abbreviates: Day 29, cytoxan 25 mg./kg. i.p. once per day on days 5, 9, 13.

Where a name gives a salt, the structure may show the parent alone.

In the case of `CC(C)(CCc1ccc(O)cc1)NCC(O)c1ccccc1` (racemic) [N-(2-Phenyl-2-hydroxyethyl)-l,l-dimethyl-3-(4-hydroxyphenyl)propylamine], the “Mitotic Index (percent of cells held at mitosis)” value is given as 36% in assay [1] (first of two evaluations) and 33% in assay [1] (second of two evaluations).
As for `CNC(=O)c1ccc(CCC(C)(C)NCC(O)c2ccccc2)cc1` (racemic) [N-(2-phenyl-2-hydroxyethyl)-l,l-dimethyl-3-(4-methylaminocarbonylphenyl)propylaminium chloride], the “Mitotic Index (percent of cells held at mitosis)” value in assay [1] (first of two evaluations) came out at 36%; in assay [1] (second of two evaluations) it was 38%.
Taken in the same sequence, the figures for `CC(C)(CCc1ccc(C(N)=O)cc1)NCC(O)c1ccccc1` (stereo not shown) [N-(2-Phenyl-2-hydroxyethyl)-1,1-dimethyl-3-(4-aminocarbonylphenyl)propylamine] were 57% and 45%.
As to `CN(C)C(=O)c1ccc(CCC(C)(C)NCC(O)c2ccccc2)cc1` (racemic) [N-(2-phenyl-2-hydroxyethyl)-1,1-dimethyl-3-(4-dimethylaminocarbonylphenyl)propylaminium oxalate], the “Mitotic Index (percent of cells held at mitosis)” value stood at 40% in assay [1] (first of two evaluations) and 46% in assay [1] (second of two evaluations).
On to `O=P1(N(CCCl)CCCl)NCCCO1` (stereo not shown) [Cytoxan, cytoxan], for which the “number of surviving animals out of test group” value in assay [2] (Day 0) is on record as 10/10; in assay [2] (Day 8), 10/10; in assay [2] (Day 13) it was 9/10; in assay [2] (Day 19) it was 6/10. Further, the average tumor size in assay [2] (Day 8) was 560 square millimeters; in assay [2] (Day 13) it was 950 square millimeters; in assay [2] (Day 19), 1340 square millimeters; in assay [2] (Day 19, listed as cytoxan) it was “about 1340 square millimeters”; with 755 adenocarcinoma (setting [3]), 130; in the assay with 755 adenocarcinoma (setting [4]), 80. Moreover, the average tumor size worked out at 190 with 755 adenocarcinoma (setting [5]); 60 in the assay on 755 adenocarcinoma (setting [6]); 300 in the assay on 755 adenocarcinoma (setting [7]); 60 in the assay with 755 adenocarcinoma (setting [8]); 600 with 755 adenocarcinoma (setting [9]); 200 in the assay with 755 adenocarcinoma (setting [10]). Moreover, the average tumor size with 755 adenocarcinoma (setting [11]) stood at 800; with 755 adenocarcinoma (setting [12]), 570. Further, the “number of tumor free animals out of those still living” value in the assay on 755 adenocarcinoma (Day 0, cytoxan 12.5 mg./kg. i.p. days 5, 9, 13, B 7.5 mg./kg. s.c. twice daily days 5 through 14) is listed as 0/10; with 755 adenocarcinoma (Day 0, cytoxan 25 mg./kg. i.p. once per day on days 5, 9, 13), 0/10; in the assay on 755 adenocarcinoma (setting [3]) it was 0/10; in the assay with 755 adenocarcinoma (setting [4]), 0/10; with 755 adenocarcinoma (setting [5]), 0/10; in the assay on 755 adenocarcinoma (setting [6]), 1/10. In addition, the “number of tumor free animals out of those still living” value in the assay with 755 adenocarcinoma (setting [7]) is listed as 0/10; in the assay with 755 adenocarcinoma (setting [8]), 4/10; in the assay with 755 adenocarcinoma (setting [9]) it was 1/9; in the assay with 755 adenocarcinoma (setting [10]) it was 2/9; with 755 adenocarcinoma (setting [11]) it was 0/4; in the assay with 755 adenocarcinoma (setting [12]), 0/4. Moreover, the “number of tumor free animals out of those still living” value in the assay on 755 adenocarcinoma (Day 73, cytoxan 12.5 mg./kg. i.p. days 5, 9, 13, B 7.5 mg./kg. s.c. twice daily days 5 through 14) was 0/0; in the assay on 755 adenocarcinoma (Day 73, cytoxan 25 mg./kg. i.p. once per day on days 5, 9, 13) it was 0/0.
